Laboratory results as given in US7423159B2, “Agent for preventing or treating neuropathy” (Takeda Pharmaceutical Company Limited, priority 2002, dated 2008).

Row | SMILES | melting point
1 | CCOP(=O)(Cc1ccc(NC(=O)/C=C/c2cnn(C)c2-c2ccco2)cc1)OCC | 195 to 196 °C
2 | COP(=O)(Cc1ccc(NC(=O)/C=C/c2cnn(C)c2-c2ccc(C)cc2)cc1)OC | 207 to 209 °C
3 | Cn1ncc(/C=C/C(=O)Nc2ccc(-n3cccn3)cc2)c1-c1ccc(F)cc1 [Example 197, (2E)-3-[5-(4-Fluorophenyl)-1-methyl-1H-pyrazol-4-yl]-N-[4-(1H-pyrazol-1-yl)phenyl]acrylamide] | 200 to 201 °C
4 | Cc1nnc(COc2ccc(NC(=O)/C=C/c3cnn(C)c3-c3ccc(F)cc3)cc2)o1 [Example 97, (2E)-3-[5-(4-Fluorophenyl)-1-methyl-1H-pyrazol-4-yl]-N-{4-[(5-methyl-1,3,4-oxadiazol-2-yl)methoxy]phenyl}acrylamide] | 117 to 118 °C
5 | CCOP(=O)(Cc1ccccc1NC(=O)/C=C/c1cnn(C)c1-c1ccc(F)cc1)OCC | 168 to 169 °C
6 | Cn1ncc(/C=C/C(=O)Nc2ccc(OCc3cscn3)cc2)c1-c1ccc(F)cc1 [Example 92, (2E)-3-[5-(4-Fluorophenyl)-1-methyl-1H-pyrazol-4-yl]-N-[4-(1,3-thiazol-4-ylmethoxy)phenyl]acrylamide] | 171 to 172 °C
7 | COP(=O)(Cc1ccc(NC(=O)/C=C/c2cnn(C)c2-c2cccc3ccccc23)cc1)OC | 207 to 209 °C
8 | COP(=O)(Cc1ccc(NC(=O)/C=C/c2cnn(C)c2-c2ccc(C(F)(F)F)cc2)cc1)OC | 212 to 213 °C
9 | Cn1ncc(/C=C/C(=O)Nc2ccc(CN3C(=O)CCCC3=O)cc2)c1-c1ccc(F)cc1 [Example 158, (2E)-N-{4-[(2,6-Dioxo-1-piperidinyl)methyl]phenyl}-3-[5-(4-fluorophenyl)-1-methyl-1H-pyrazol-4-yl]acrylamide] | 218 to 220 °C
10 | COP(=O)(Cc1ccc(NC(=O)CCc2cnn(C)c2-c2ccc(F)cc2)cc1)OC | 142 to 143 °C
11 | Cn1ncc(/C=C/C(=O)Nc2ccc(OCc3nnco3)cc2)c1-c1ccc(F)cc1 [Example 94, (2E)-3-[5-(4-Fluorophenyl)-1-methyl-1H-pyrazol-4-yl]-N-[4-(1,3,4-oxadiazol-2-ylmethoxy)phenyl]acrylamide] | 154 to 155 °C
12 | CCOP(=O)(Cc1ccc(NC(=O)/C=C/c2cnn(C)c2-c2ccc(Br)cc2)cc1)OCC | 229 to 231 °C
13 | COC(=O)c1ccc(NC(=O)CCc2cnn(-c3ccccc3)c2-c2ccccc2)cc1 [Example 82, N-[4-(Methoxycarbonyl)phenyl]-3-(1,5-diphenyl-1H-pyrazol-4-yl)propionamide] | 196 to 197 °C
14 | Cn1ncc(/C=C/C(=O)Nc2ccc(CNC(=O)c3ccccc3)cc2)c1-c1ccc(F)cc1 [Example 142, N-[4-({(2E)-3-[5-(4-Fluorophenyl)-1-methyl-1H-pyrazol-4-yl]prop-2-enoyl}amino)benzyl]benzamide] | 250 to 251 °C
15 | CCOP(=O)(Cc1ccc(NC(=O)/C=C/c2cnn(C)c2-c2ccccc2F)cc1)OCC | 238 to 240 °C
16 | O=C(O)Cc1ccc(NC(=O)CCc2cnn(-c3ccccc3)c2-c2ccccc2)cc1 [Example 83, (4-{[3-(1,5-diphenyl-1H-pyrazol-4-yl)propanoyl]amino}phenyl)acetic acid] | 199 to 201 °C
17 | COc1ccc(-c2c(/C=C/C(=O)Nc3ccc(CP(=O)(OC)OC)cc3)cnn2C)cc1 | 199 to 200 °C
18 | Cn1ncc(/C=C/C(=O)Nc2ccc(C(O)c3ccccc3)cc2)c1-c1ccc(F)cc1 (centres unmarked) [Example 174, (2E)-3-[5-(4-Fluorophenyl)-1-methyl-1H-pyrazol-4-yl]-N-{4-[hydroxy(phenyl)methyl]phenyl}acrylamide] | 192 to 195 °C
19 | Cn1ncc(/C=C/C(=O)Nc2ccc3[nH]c(=O)oc3c2)c1-c1ccc(F)cc1 [Example 106, (2E)-3-[5-(4-Fluorophenyl)-1-methyl-1H-pyrazol-4-yl]-N-(2-oxo-2,3-dihydro-1,3-benzoxazol-6-yl)acrylamide] | > 300 °C

The remaining lines, values ahead:

Row | melting point | SMILES
20 | 149 to 150 °C | CCn1nc(Cc2ccc(NC(=O)/C=C/c3cnn(C)c3-c3ccc(F)cc3)cc2)oc1=O [Example 120, (2E)-N-{4-[(4-Ethyl-5-oxo-4,5-dihydro-1,3,4-oxadiazol-2-yl)methyl]phenyl}-3-[5-(4-fluorophenyl)-1-methyl-1H-pyrazol-4-yl]acrylamide]
21 | 192 to 193 °C | CC(=O)N(C)Cc1ccc(NC(=O)/C=C/c2cnn(C)c2-c2ccc(F)cc2)cc1 [Example 117, (2E)-N-(4-{[Acetyl(methyl)amino]methyl}phenyl)-3-[5-(4-fluorophenyl)-1-methyl-1H-pyrazol-4-yl]acrylamide]
22 | 240 to 241 °C | Cn1ncc(/C=C/C(=O)Nc2ccc(C[S+](C)[O-])cc2)c1-c1ccc(F)cc1 (centres unmarked) [Example 215, (2E)-3-(5-(4-fluorophenyl)-1-methyl-1H-pyrazol-4-yl)-N-(4-((methylsulfinyl)methyl)phenyl)acrylamide]
23 | 182 to 183 °C | Cn1ncc(/C=C/C(=O)Nc2ccc(CSc3c[nH]nn3)cc2)c1-c1ccc(F)cc1 [Example 213, (2E)-3-[5-(4-Fluorophenyl)-1-methyl-1H-pyrazol-4-yl]-N-(4-[(1H-1,2,3-triazol-4-ylthio)methyl)phenyl]acrylamide]
24 | 206 to 207 °C | CCn1nnnc1Cc1ccc(NC(=O)/C=C/c2cnn(C)c2-c2ccc(F)cc2)cc1 [Example 103, (2E)-N-{4-[(1-Ethyl-1H-tetrazol-5-yl)methyl]phenyl}-3-[5-(4-fluorophenyl)-1-methyl-1H-pyrazol-4-yl]acrylamide]
25 | 211 to 212 °C | CCc1csc(Cc2ccc(NC(=O)/C=C/c3cnn(C)c3-c3ccc(F)cc3)cc2)n1 [Example 125, (2E)-N-{4-[(4-ethyl-1,3-thiazol-2-yl)methyl]phenyl}-3-[5-(4-fluorophenyl)-1-methyl-1H-pyrazol-4-yl]acrylamide]
26 | 260 to 261 °C | Cn1ncc(/C=C/C(=O)Nc2ccc([S+](C)[O-])cc2)c1-c1ccc(F)cc1 (centres unmarked) [Example 217, (2E)-3-[5-(4-Fluorophenyl)-1-methyl-1H-pyrazol-4-yl]-N-[4-(methylsulfinyl)phenyl]acrylamide]
27 | 210 to 211 °C | Cc1nc(Cc2ccc(NC(=O)/C=C/c3cnn(C)c3-c3ccc(F)cc3)cc2)sc1C [Example 123, (2E)-N-{4-[(4,5-Dimethyl-1,3-thiazol-2-yl)methyl]phenyl}-3-{5-(4-fluorophenyl)-1-methyl-1H-pyrazol-4-yl}acrylamide]
28 | 204 to 205 °C | CC(=O)c1ccc(NC(=O)/C=C/c2cnn(C)c2-c2ccc(F)cc2)cc1 [Example 165, (2E)-N-(4-Acetylphenyl)-3-[5-(4-fluorophenyl)-1-methyl-1H-pyrazol-4-yl)acrylamide]
29 | 178 to 179 °C | Cn1ncc(/C=C/C(=O)Nc2ccc(Cn3nccn3)cc2)c1-c1ccc(F)cc1 [Example 196, (2E)-3-[5-(4-Fluorophenyl)-1-methyl-1H-pyrazol-4-yl]-N-[4-(2H-1,2,3-triazol-2-ylmethyl)phenyl]acrylamide]
30 | 202 to 203 °C | CCOC(=O)c1ccc(NC(=O)/C=C/c2cnn(C)c2-c2ccc(F)cc2)cc1 [Example 180, ethyl 4-({(2E)-3-[5-(4-fluorophenyl)-1-methyl-1H-pyrazol-4-yl]prop-2-enoyl}amino)benzoate]
31 | 233 to 234 °C | CC(=O)NCc1ccc(NC(=O)/C=C/c2cnn(C)c2-c2ccc(F)cc2)cc1 [Example 189, (2E)-N-{4-[(Acetylamino)methyl]phenyl}-3-[5-(4-fluorophenyl)-1-methyl-1H-pyrazol-4-yl]acrylamide]
32 | 165 to 168 °C | CSCc1ccc(NC(=O)/C=C/c2cnn(C)c2-c2ccc(F)cc2)cc1 [Example 208, (2E)-3-[5-(4-fluorophenyl)-1-methyl-1H-pyrazol-4-yl]-N-{4-[(methylthio)methyl]phenyl}acrylamide]
33 | 245 to 246 °C | Cn1ncc(/C=C/C(=O)Nc2ccc(CC(=O)O)cc2)c1-c1ccc(F)cc1 [Example 133, [4-({(2E)-3-[5-(4-fluorophenyl)-1-methyl-1H-pyrazol-4-yl]prop-2-enoyl]amino}phenyl]acetic acid]
34 | 214 to 215 °C | CCN1C(=O)SC(Cc2ccc(NC(=O)/C=C/c3cnn(C)c3-c3ccc(F)cc3)cc2)C1=O (centres unmarked) [Example 111, (2E)-N-{4-[(3-Ethyl-2,4-dioxo-1,3-thiazolidin-5-yl)methyl]phenyl}-3-[5-(4-fluorophenyl)-1-methyl-1H-pyrazol-4-yl]acrylamide]
35 | 130 to 132 °C | Cn1ncc(/C=C/C(=O)Nc2cccc(CO)c2)c1-c1ccc(F)cc1 [Example 169, (2E)-3-[5-(4-Fluorophenyl)-1-methyl-1H-pyrazol-4-yl]-N-[3-(hydroxymethyl)phenyl)acrylamide]
36 | 242 to 243 °C | Cn1ncc(/C=C/C(=O)Nc2ccc(C[S+]([O-])C(C)(C)C)cc2)c1-c1ccc(F)cc1 (centres unmarked) [Example 218, (2E)-N-{4-[(tert-Butylsulfinyl)methyl]phenyl}-3-[5-(4-fluorophenyl)-1-methyl-1H-pyrazol-4-yl]acrylamide]
37 | 276 to 278 °C | Cn1ncc(/C=C/C(=O)Nc2ccc(C(N)=O)cc2)c1-c1ccc(F)cc1 [Example 183, 4-({(2E)-3-[5-(4-Fluorophenyl)-1-methyl-1H-pyrazol-4-yl]prop-2-enoyl}amino)benzamide]
38 | 243 to 244 °C | Cn1nnnc1Cc1ccc(NC(=O)/C=C/c2cnn(C)c2-c2ccc(F)cc2)cc1 [Example 101, (2E)-3-[5-(4-Fluorophenyl)-1-methyl-1H-pyrazol-4-yl]-N-{4-[(1-methyl-1H-tetrazol-5-yl)methyl]phenyl}acrylamide]
39 | 170 to 171 °C | COCc1ccc(NC(=O)/C=C/c2cnn(C)c2-c2ccc(F)cc2)cc1 [Example 209, (2E)-3-[5-(4-Fluorophenyl)-1-methyl-1H-pyrazol-4-yl]-N-[4-(methoxymethyl)phenyl]acrylamide]
40 | 209 to 210 °C | CN(C)C(=O)Cc1ccc(NC(=O)/C=C/c2cnn(C)c2-c2ccc(F)cc2)cc1 [Example 143, (2E)-N-{4-[2-(dimethylamino)-2-oxoethyl]phenyl}-3-[5-(4-fluorophenyl)-1-methyl-1H-pyrazol-4-yl]acrylamide]
41 | 157 to 158 °C | CCOP(=O)(CCc1ccc(NC(=O)/C=C/c2cnn(C)c2-c2ccc(F)cc2)cc1)OCC
